Measured values as given in patent EP0097072A1, “Derivatives of benzylsulfinyl acetamides, their therapeutic use and process for their preparation” (LABORATOIRE L. LAFON Société anonyme dite:, priority 1982, dated 1983).

Experiments:
Assay type in all cases: in vivo
[1] = system: souris mâle; assay: Global behaviour and reactivities in the mouse; conditions: I.P., 512 mg/kg, observed 15 min to 24 h after administration
Protocol: (§1) Les résultats des essais qui ont été entrepris ont été résumés ci-après. Dans ces essais, le CRL 40569 (produit de l'exemple 1) en suspension dans une solution aqueuse de gomme arabique, et le CRL 40615 (produit de l'exemple 2) en solution dans de l'eau distillée ont été administrés par voie intrapéritonéale sous un volume de 20 ml/kg chez la souris mâle et sous un volume de 5 ml/kg chez le rat mâle.
(§2) Des lots de 3 animaux par dose et par produit sont observés avant,puis 15 minutes, 30 minutes, 1 h, 2h, 3h et 24 h après administration des CRL 40569 et CRL 40615.

[2] = system: souris; assay: Action on spontaneous motility (actimeter); conditions: mouse, recorded 30 min, starting half an hour after dosing
Protocol: as §1
Une demi-heure après avoir reçu les produits à tester, les souris (6 par dose et par produit, 12 témoins pour chaque produit) sont placées en actimètre ou leur motilité est enregistrée pendant 30 minutes.

[3] = system: rats; assay: Interaction with amphetamine (amphetamine stereotypies); conditions: rat, 256 mg/kg I.P.; amphetamine 2 mg/kg I.P. half an hour after the compound
Protocol: as §1
Des lots de 6 rats reçoivent une injection par voie I.P. de 2 mg/kg d'amphétamine une demi-heure après le CRL 40569.

[4] = system: rat mâle; assay: Global behaviour and reactivities in the rat; conditions: I.P.
Protocol: as §1, §2

[5] = system: souris mâle; assay: Toxicity: DL-0 (maximal non-lethal dose); conditions: male mouse, I.P. route
Protocol: as §1
La DL-0 (dose maximale non mortelle) chez la souris mâle par voie I.P. pour les CRL 40569 et CRL 40615 est supérieure à 1024 mg/kg.

[6] = system: souris; assay: Action on intergroup aggressiveness (number of fights); conditions: mouse, notably at 512 mg/kg I.P.; groups joined half an hour after dosing, fights counted over 10 minutes
Protocol: as §1
Après avoir séjourné pendant 3 semaines de part et d'autre d'une cloison opaque séparant leur cage par le milieu, des groupes de 3 souris reçoivent le CRL 40615. Une demi-heure plus tard, les deux groupes d'une même cage sont réunis par retrait de la cloison et ou note le nombre de combats qui surviennent en 10 minutes.

Structure (SMILES)	comportement global et réactivités [1]	motilité spontanée ([2]; I.P., 32, 128 and 512 mg/kg)	intensité des stéréotypies amphétaminiques [3]	comportement global et réactivités ([4]; at none of the doses used (256, 64, 16 and 4 mg/kg))	DL-0 (dose maximale non mortelle) [5]	comportement global et réactivités ([1]; 128 mg/kg and 32 mg/kg)	motilité spontanée ([2]; I.P., high dose (512 mg/kg))	comportement global et réactivités ([4]; 256 mg/kg)	nombre de combats [6]
COc1ccc(C[S+]([O-])CC(N)=O)cc1 (stereo not shown) [CRL 40569, 4-méthoxybenzylsulfinyl-acétamide]	diminution fugace de la réactivité au toucher, de la force et du tonus musculaire	diminution de la motilité spontanée	diminue légèrement l'intensité des stéréotypies amphétaminiques	n'a entraîné des modifications nettes du comportement et des réactivités	> 1024 mg/kg				
COc1ccc(C[S+]([O-])CC(=O)NCCN2CCOCC2)cc1 (stereo not drawn) [CRL 40615, N-β-morpholinoéthyl-4-méthoxybenzylsulfinyl-acétamide]					> 1024 mg/kg	sédation pendant 15 à 30 minutes puis une excitation tardive qui se manifeste 24 h après administration	diminue la motilité spontanée	diminution du tonus musculaire	diminue le nombre de combats
